Entries after “also recorded” stand apart in the source; their conditions may differ.
Assays:
[1] = system: prenatally cocaine-exposed mice; assay: Olfactory (odor) reversal learning, go no-go olfactometer paradigm; assay type: in vivo, mouse (Swiss Webster)
Experimental: Swiss Webster mice were housed in a temperature and humidity controlled environment on a 12 hr light/dark cycle with food and water available ad libitum were bred to obtain timed pregnancies.
Singly housed dams received twice daily (7 AM and 7 PM) subcutaneous injections of cocaine (20 mg/kg/injection: total daily dose=40 mg/kg/day) or saline (same volume and time of administration as the cocaine injection) from the 8th day of pregnancy until the day of birth. The period of cocaine exposure corresponds to mid-first trimester of human pregnancies.
(§1) Olfactometry: Reversal learning was assayed in an automated olfactometer based on odor learning and detection using water as reward (41, 42). Briefly, odorants were presented via an 8-channel liquid dilution computerized olfactometer (Knosys LD8-1, Tampa, Fla.) so that odorant threshold determinations were automated and stimulus concentration, timing of onset and offset, and stimulus control of behavior could be controlled reliably. We modified our Knosys system to provide additional mechanical dampening of the solenoid pinch valves to permit incorporation of materials for mounting the machine in-line with sterilization of the olfactometer.
The Knosys olfactometer employs operant conditioning in the form of both positive and negative reinforcements. Positive reinforcement is used when pairing an odorant with water reward (S+). A 10-second time out or negative reinforcement occurs as a result of a mouse responding to a negative cue or diluent (S−). Mice were therefore trained in a classical “go no-go” operant conditioning paradigm to recognize an odorant.
Operant training: Mice were water-deprived to 85% of their baseline bodyweight to motivate them for a water reward. Operant training was performed using a step-wise battery of tasks that began with reward reinforcement for learning to lick a water delivery tube and snout insertion into the odor sampling port. Mice advanced to the next stage after 30 reinforcements. Next, mice were reinforced for lick decisions paired with a positively entrained odor (S+). They were required to nose poke for an extended period of time to sample an odor prior to receiving water reinforcement.
During the go no-go operant training mice inserted their snout into the odor sampling port to initiate a trial and waited until the odor stimulus was presented. […] The mice were rewarded for lick decisions paired with a positively entrained odor (S+) and also for correct rejections paired with a negatively entrained odor (S−). This establishes the “go no-go” reward criteria. The percentage of correct responses per trial was determined by the formula: % correct responses=[(HITs+Correct Rejections)/20]×100, where a HIT is defined as a criterion response in the presence of S+, and a Correct Rejection (CR) is a failure to make a criterion response in the presence of […] 20 represents the number of trials per block.
Odor Reversal Learning: Once mice achieved criteria performance on the two-odor discrimination testing for a week, mice underwent an odor-reversal learning paradigm. Here mice were introduced to the switch (reversal) of the S+ for the S− stimulus where the previously rewarded odor stimulus now lacked the water reward and the previously unrewarded odor stimulus was now paired with the water reward.
The scent stimuli used were 5% Ethyl Acetate (EA) and 1% Acetophenone (AP).
Upon successful completion of the training phase and odor discrimination phase a subset of mice were randomly assigned to the ANA-12 injection group. ANA-12 (Sigma Aldrich, St. Louis, Mo.; SML0209) was administered twice daily [0.5 mg/kg; 1.0 mg/kg/day intraperitoneal (i.p.)] for 13 consecutive days. ANA-12 was dissolved in 100% DMSO (stock), and diluted further such that the final concentration of DMSO administered to the mice was 1%. On days 8-10 of the injection period, the mice were water deprived (to 85% of pre-deprivation weight). […]

[2] = system: prenatally cocaine-exposed mice; assay: Odor versus odor discrimination (two-odor discrimination testing); assay type: in vivo, mouse (Swiss Webster); conditions: ANA-12 i.p. twice a day, 1 mg/kg/day; data not shown
Experimental: as §1
During the go no-go operant training mice inserted their snout into the odor sampling port to initiate a trial and waited until the odor stimulus was presented. […] The mice were rewarded for lick decisions paired with a positively entrained odor (S+) and also for correct rejections paired with a negatively entrained odor (S−). This establishes the “go no-go” reward criteria. The percentage of correct responses per trial was determined by the formula: % correct responses=[(HITs+Correct Rejections)/20]×100, where a HIT is defined as a criterion response in the presence of S+, and a Correct Rejection (CR) is a failure to make a criterion response in the presence of […] 20 represents the number of trials per block. […]

TrkA = TrkA (Homo sapiens, UniProt P04629); conditions: cited from earlier work
Sequence of TrkA (P04629 33-796, species assumed): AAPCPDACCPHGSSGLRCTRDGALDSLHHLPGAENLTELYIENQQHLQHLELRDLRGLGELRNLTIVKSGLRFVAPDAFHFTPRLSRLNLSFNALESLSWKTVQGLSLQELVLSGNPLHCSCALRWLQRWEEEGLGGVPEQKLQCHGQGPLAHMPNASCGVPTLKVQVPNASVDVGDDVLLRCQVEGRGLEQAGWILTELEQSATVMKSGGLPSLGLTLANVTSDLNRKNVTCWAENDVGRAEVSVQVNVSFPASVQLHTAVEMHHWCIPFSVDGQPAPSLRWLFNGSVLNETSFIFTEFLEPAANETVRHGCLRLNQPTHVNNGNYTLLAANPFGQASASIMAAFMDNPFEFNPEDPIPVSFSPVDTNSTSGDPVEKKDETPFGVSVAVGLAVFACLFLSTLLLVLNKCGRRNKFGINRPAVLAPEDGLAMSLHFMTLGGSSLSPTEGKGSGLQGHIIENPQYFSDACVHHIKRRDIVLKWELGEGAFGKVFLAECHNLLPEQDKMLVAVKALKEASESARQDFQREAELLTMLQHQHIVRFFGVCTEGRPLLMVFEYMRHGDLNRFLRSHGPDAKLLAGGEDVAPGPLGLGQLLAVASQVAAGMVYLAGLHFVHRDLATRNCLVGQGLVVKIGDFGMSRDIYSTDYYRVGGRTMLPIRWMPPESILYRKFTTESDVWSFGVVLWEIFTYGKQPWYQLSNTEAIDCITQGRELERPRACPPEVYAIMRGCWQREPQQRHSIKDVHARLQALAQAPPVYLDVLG

TrkC = TrkC (Homo sapiens, UniProt Q16288); conditions: cited from earlier work
Sequence of TrkC (Q16288 32-839, species assumed): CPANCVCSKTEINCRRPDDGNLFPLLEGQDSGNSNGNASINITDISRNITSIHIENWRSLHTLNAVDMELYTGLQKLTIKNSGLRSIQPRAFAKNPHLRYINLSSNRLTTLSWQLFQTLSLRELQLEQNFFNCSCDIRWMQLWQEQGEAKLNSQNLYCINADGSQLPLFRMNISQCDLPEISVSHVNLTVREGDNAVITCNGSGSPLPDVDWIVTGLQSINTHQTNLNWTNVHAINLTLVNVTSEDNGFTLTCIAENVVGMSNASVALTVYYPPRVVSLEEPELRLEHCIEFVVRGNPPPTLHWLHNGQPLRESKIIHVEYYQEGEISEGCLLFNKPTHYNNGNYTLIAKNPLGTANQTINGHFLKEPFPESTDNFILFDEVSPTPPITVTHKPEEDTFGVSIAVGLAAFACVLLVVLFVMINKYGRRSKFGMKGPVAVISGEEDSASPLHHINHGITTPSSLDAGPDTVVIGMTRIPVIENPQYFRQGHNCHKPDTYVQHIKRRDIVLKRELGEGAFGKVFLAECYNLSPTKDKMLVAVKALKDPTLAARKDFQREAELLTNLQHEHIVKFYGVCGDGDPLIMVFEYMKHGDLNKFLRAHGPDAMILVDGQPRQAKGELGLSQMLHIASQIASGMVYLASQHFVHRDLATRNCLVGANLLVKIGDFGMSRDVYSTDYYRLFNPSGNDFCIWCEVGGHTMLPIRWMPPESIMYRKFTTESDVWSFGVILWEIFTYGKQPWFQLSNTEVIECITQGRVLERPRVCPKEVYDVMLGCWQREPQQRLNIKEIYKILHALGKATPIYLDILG

mice = mice dosed with ANA-12; Cazorla et al., J. Clin. Invest. 121(5), 1846-57 (2011); cited from earlier work

O=C(Nc1ccccc1C(=O)NC1CCCCNC1=O)c1cc2ccccc2s1 (stereo not shown) [ANA-12, N-[2-[[(Hexahydro-2-oxo-1H-azepin-3-yl)amino]carbonyl]phenyl]-benzo[b]thiophene-2-carboxamide]
performance in the reversal paradigm ([1]; ANA-12 treated prenatally cocaine-exposed mice vs prenatally cocaine-exposed mice, i.p. 1 mg/kg/day, 13 days, 1 mg/kg/day): performed better; also recorded: significant improvement in performance
cognitive flexibility of treated subjects ([1]; ANA-12 treatment, summary statement): a statistically significant number of subjects tested showed improved cognitive flexibility
Number of trials to reach criteria (≥80%), Mean±SEM ([1]; Cocaine+ANA12 group, i.p. 1 mg/kg/day, 13 days): 255.0±9.6
difference in number of trials to reach criteria vs saline-exposed mice ([1]; Mann-Whitney's U test, saline vs cocaine+ANA-12, p>0.05): no significant difference
time course of reversal learning vs saline-exposed mice ([1]; Student's t-test, p>0.05): not significantly different
median number of trials needed to reach criteria following reversal of the odors ([1]; cocaine+ANA-12 group): 290
mean rank, Mann-Whitney's U test, number of trials to reach criteria ([1]; cocaine+ANA-12 group vs saline (U=3.5, p>0.05)): 22.5
% correct responses in reversal learning, post-hoc Bonferroni comparison cocaine versus cocaine+ANA-12 ([1]; day 2 (blocks 11-20), t=3.557, df=124, p<0.01, FIG. 2A): significant difference
percentage of mice that reached criteria (at least 80% correct) over the two days ([1]; prenatally cocaine-exposed mice injected with ANA-12, FIG. 2B): 57%
correct hits in odor versus odor discrimination [2]: > 80%
effect on TrkA functions (TrkA): without substantially altering
effect on TrkC functions (TrkC): without substantially altering
anxiety- and depression-related behaviors (mice): reduced anxiety- and depression-related behaviors
